Legend:
Format in all cases: physicochemical
[1] = UV-Vis absorbance, fluorescence emission and quantum yield in organic solvents
Description: The absorption, emission, and fluorescence lifetime characteristics of all four TTz dyes were recorded in a variety of organic solvents (FIGS. 7A-7B, Table of FIG. 8). Additionally, HOMO/LUMO levels of the TTz dyes were determined computationally in Spartan 16 using B3LYP/6-31g. Molar absorptivities of all the TTz dyes ranged from 13,000 to 86,000 cm^−1M^−1. […] However, the peak absorbance of Bu2N-TTz-Py in DCM was slightly red-shifted as compared to that of Ph2N-TTz-Py (λmax, abs=429 nm vs λmax, abs=422 nm in DCM), which is attributed to the diphenylamine moiety having weaker donor characteristics. […] Due to the low estimated ground state dipole moments of the TTz dyes (μ=6-8 D), their wavelengths of absorbance remained relatively solvent independent (st. dev.=±11 nm).
(§1) 4-pyridine carboxaldehyde, 4-(dibutylamino)benzaldehyde, 4-(diphenylamino)benzaldehyde, terephthalaldehyde, dithiooxamide, and all solvents used for spectroscopic measurements were purchased from Sigma-Aldrich and used without further purification. ^1H and ^13CNMR measurements were obtained with either a JEOL 300 MHz NMR or a JEOL 500 MHz NMR. High resolution mass spectra were obtained using a Thermo Fisher Scientific MSQ Plus Single Quadrupole Mass Spectrometer. Solution-state UV-Vis spectra were collected on a Cary 300 UV-Vis spectrophotometer. Time-resolved measurements were taken on a Jobin Yvon-Spex Fluorolog equipped with a 389 nm diode laser for time-resolved PL decay measurements. Igor Pro 6.3 software was used to fit PL(t) decay data to single/multiple exponential decays. Quantum yields were calculated using 9,10-diphenylanthracene as a reference (quantum yield [ΦF] in cyclohexane=0.97).^40-41 Density functional theory (DFT) calculations were performed with Spartan computational software using B3LYP^42-43 density functional and 6-31G*^44 basis set. Temperature studies were conducted using a 10 μM Bu2N-TTz-Py MeTHF solution placed inside of a Norrell 502 NMR tube and sequentially submerged in the following liquid N2 baths:octanol (−16° C.), acetonitrile (−41° C.), acetone (−94° C.), pentane (−131° C.), MeTHF (−136° C.), and liquid N2 itself (−196° C.). The phosphorescence spectrum of Bu2N-TTz-Py (see S2) was collected similarly at −196° C. by pumping with 389 nm light while inside a liquid nitrogen bath and then probing the emission within 2 sec of removing from the bath. Human embryonic kidney cells (HEK 293T) were a kind gift from Prof. Bryan Dickinson, and Mouse macrophage J774A.1 cells were a kind gift from Prof. Deborah Nelson at the University of Chicago. Cells were cultured in Dulbecco's Modified Eagle's Medium (Invitrogen Corporation, USA) containing 10% heat inactivated Fetal Bovine Serum (FBS) (Invitrogen Corporation, USA), 100 U/mL penicillin, and 100 μg/mL streptomycin. Cells were maintained at 37° C. under 5% CO2.

[2] = Temperature studies of emission in MeTHF (thermofluorochromism); details: for wavelength of emission: 10 μM in MeTHF
Description: In an extension of sensing the surrounding polarity, the dependence of the wavelength of emission as a function of temperature and pH were also explored. For these efforts, Bu2N-TTz-Py was chosen as a focal representative of the asymmetric TTzs for its solubility, amphiphilicity, high Stokes shifts, and otherwise similar photophysical characteristics. For the temperature studies, a 10 μM MeTHF solution of Bu2N-TTz-Py was prepared and the emission of the solution was monitored from −196-60° C. MeTHF was chosen for its wide liquid temperature window and ability to form a glass upon freezing; most other solvents crystallize upon solidification and inhibit fluorescence. The low temperature studies were achieved using various liquid N2 cooling baths (see Experimental). Due to the condensation of atmospheric moisture during low-temperature testing, only the normalized emission intensities are reported. […] At temperatures near the freezing point of MeTHF and below, however, the wavelength of emission rapidly blue-shifts from 559 to 544 to 503 nm at −131, −136, and −196° C., respectively.
as §1

[3] = Lippert-Mataga analysis of excited state dipole moments; details: semi-empirically calculated using the Lippert-Mataga equation
Description: The calculated HOMOs/LUMOs indicate that the strong solvatofluorochromism arises from an ICT mechanism, whereby the ground state has significant electron localization on the donor side of the molecule whereas the electron density shifts to the acceptor moiety in the excited state. To more directly quantify the strong ICT character of the TTz dyes, the excited-state dipole moments were calculated using the Lippert-Mataga equation (Eq 1):
[formula] where va and vf are the wavenumbers of the absorption and emission peaks in cm^−1, respectively; μ* and μ are the excited state and ground state dipoles, respectively; ϵ0 is the vacuum permittivity, h is Planck's constant, c is the speed of light, a is the Onsager cavity radius, Δf is the orientation polarizability, ϵ is the relative permittivity, and η is the refractive index. The dipoles were calculated using Spartan 2016 software, and the Onsager cavity radii were calculated using Gaussian '09 software.
FIGS. 9A and 9B show the Stokes shift of Bu2N-TTz-Py and Ph2N-TTz-COOH versus Δf, respectively. From the slopes of the Lippert-Mataga plots, the change between the dipole moments of the ground and excited states can be determined. Even though the Lippert-Mataga equation assumes no specific solvent-solute interactions (e.g. hydrogen bonding) and ignores solute polarizability, high degrees of linearity are apparent; and therefore, the estimations of the excited state dipoles are regarded as reliable. […] Perhaps owing to the minimal solvent interactions and rapid vibrational relaxation, the estimated changes in dipole moments (Δμ) are remarkably large (Table IV). […] Therefore, it is expected that these asymmetric TTzs dyes would be well suited to give high sensitivity in sensing applications whereby small changes in the polarity of the environment can lead to large differences in the wavelengths of fluorescence.

- quantum yield ΦMeOH ([1]; MeOH, reference 9,10-diphenylanthracene): 0.04
- QY in aqueous environments ([1]; aqueous environments): low QY
- quantum yield Φhex ([1]; hex, reference 9,10-diphenylanthracene): 0.93
- peak absorbance λmax, abs ([1]; in DCM): 429 nm
- wavelength of emission ([2]; 60° C.): 519 nm
- wavelength of emission ([2]; −131° C.): 559 nm
- wavelength of emission ([2]; −136° C.): 544 nm
- wavelength of emission ([2]; −196° C.): 503 nm
- temperature sensitivity of emission wavelength ([2]; TTz/MeTHF solution, liquid range of MeTHF): −0.21 nm ° C.^−1
- Change in Dipole Δμ [3]: 15.9 D
- Excited State Dipole μ* [3]: 24.3 D
SMILES: CCCCN(CCCC)c1ccc(-c2nc3sc(-c4ccncc4)nc3s2)cc1 [Bu2N-TTz-Py, 2-(N,N-dibutyl-4-aminophenyl)-5-(4-pyridyl) thiazolo[5,4-d]thiazole]

Source: patent publication US12707888B2, “Asymmetric donor-acceptor molecular dyes” (THE UNIVERSITY OF NORTH CAROLINA AT CHARLOTTE, priority 2019, dated 2026)
